Read-outs that look alike come from different tables or passages of the source.
Experiments:
[1] = target: T1, recombinant human ERK5 catalytic domain (Homo sapiens, UniProt Q13164); test: Recombinant human ERK5 radiometric (HotSpot) assay; type: biochemical
T1 construct: Recombinant human ERK5 catalytic domain radiometric assays; purchased Reaction Biology, Corp (Malvern, Pa.), which ran the assay as a service
Protocol: In this example, potency of the compounds in recombinant human ERK5 was assayed.
Recombinant human ERK5 catalytic domain radiometric assays were performed by Reaction Biology, Corp (Malvern, Pa.). The HotSpot radiometric assay is based on conventional filter-binding assays (Nature Biotechnology (2011) 29: 1039-1045). Compounds were tested at 20 μM down by ⅓ in a 10 point serial dilution series. Briefly, [γ-33P]-ATP was used as the tracer along with 10 μM cold ATP to label ERK5 in the presence of 20 μM myelin basic protein substrate.

human PBMCs = test: Human PBMC TNF-α response to endotoxin (ELISA); type: cell-based; details: 0.1 μg/ml LPS 16 h, read-out: EC50 for the inhibition of the human PBMC TNF-α response to endotoxin, ave. ± S.D.
Summary of the method: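 PBMCs at 2e6 cells/ml in RPMI 1640 with 10% charcoal-dextran-treated FBS were pre-treated 1 h at 37 °C with compound (4-point 1:5 dilution from 10 μM). Stimulation with 0.1 μg/ml E. coli 0111:B4 LPS for 16 h; TNF-α measured by ELISA (A450) in 25-fold diluted supernatant.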

[2] = target: T2, BRD4 bromodomain domain I [BRD4(1)] (Homo sapiens, UniProt O60885); test: BRD4 bromodomain domain 1 inhibition assay (TR-FRET); type: binding; details: for inhibition at 10 µM: screening concentration 10 μM
T2 construct: BRD4 bromodomain domain I [BRD4(1)]; purchased Cayman Chemicals
Summary of the method: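 0.5% DMSO, in triplicate, using Cayman BRD4(1) TR-FRET protocol with slight modification. 670/620 nm ratio normalized to 10 μM JQ1, with DMSO control set as 0% inhibition.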

[3] = 10 μM ATP, 20 μM myelin basic protein substrate, read-out: rhERK5 IC50

T1 sequence (Q13164 55-347 limits assumed): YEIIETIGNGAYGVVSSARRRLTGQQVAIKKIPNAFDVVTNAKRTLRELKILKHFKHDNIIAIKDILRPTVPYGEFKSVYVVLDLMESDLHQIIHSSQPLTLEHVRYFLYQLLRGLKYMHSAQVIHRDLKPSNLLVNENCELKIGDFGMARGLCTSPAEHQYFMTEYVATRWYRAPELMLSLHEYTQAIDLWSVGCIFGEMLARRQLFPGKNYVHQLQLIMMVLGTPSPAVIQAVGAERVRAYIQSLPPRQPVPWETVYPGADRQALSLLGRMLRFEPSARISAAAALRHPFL

SMILES	IC50 [1, 3] [nM]	EC50 (human PBMCs) [nM]	inhibition at 10 µM [2] [%]	IC50 [1] [nM]	IC50 [2] [nM]
CCOc1cc(C(=O)N2CCC(N3CCOCC3)CC2)ccc1Nc1cc2c(cn1)N(C)C(=O)c1ccccc1N2C [Compound T12]	20 to 50	680	–	–	–
CCOc1cc(C(=O)N2CCC[C@H](O)C2)ccc1Nc1cc2c(cn1)N(C)C(=O)c1scnc1N2C [Compound T13]	50 to 200	950	–	–	–
CCOc1cc(C(=O)N2CCN(CCOC)CC2)ccc1Nc1cc2c(cn1)N(C)C(=O)c1ccccc1N2C [Compound T16]	20 to 50	920	–	–	–
CCOc1cc(C(=O)N2CCN(CCC#N)CC2)ccc1Nc1cc2c(cn1)N(C)C(=O)c1ccccc1N2C [Compound T17]	20 to 50	900	–	–	–
CCOc1cc(C(=O)N2CC[C@@H](N3CCOCC3)C2)ccc1Nc1cc2c(cn1)N(C)C(=O)c1ccccc1N2C [Compound T19]	50 to 200	690	–	–	–
CCOc1cc(C(=O)N2CC[C@@H](C#N)C2)ccc1Nc1cc2c(cn1)N(C)C(=O)c1ccccc1N2C [Compound T21]	< 20	1280	–	–	–
CCOc1cc(C(=O)N2CCC[C@@H](C#N)C2)ccc1Nc1cc2c(cn1)N(C)C(=O)c1ccccc1N2C [Compound T23]	> 200	2390	–	–	–
CCOc1cc(C(=O)N2CCC[C@H](C#N)C2)ccc1Nc1cc2c(cn1)N(C)C(=O)c1ccccc1N2C [Compound T24]	> 200	3270	–	–	–
CCOc1cc(C(=O)N2CCN[C@@H](C)C2)ccc1Nc1cc2c(cn1)N(C)C(=O)c1ccccc1N2C [Compound T25]	< 20	480	> 85	–	–
CCOc1cc(C(C)N2CCCC2)ccc1Nc1cc2c(cn1)N(C)C(=O)c1ccccc1N2C (centres unmarked) [Compound T26]	< 20	410	> 85	–	–
CCOc1cc(C(C)N2CC[C@@H](O)C2)ccc1Nc1cc2c(cn1)N(C)C(=O)c1ccccc1N2C (some centres unmarked) [Compound T27]	< 20	370	> 85	–	–
CCOc1cc(C(=O)N2CCC(=O)CC2)ccc1Nc1cc2c(cn1)N(C)C(=O)c1ccccc1N2C [Compound T28]	–	480	–	< 20	–
CCOc1cc(C(=O)N2CCN[C@H](C)C2)ccc1Nc1cc2c(cn1)N(C)C(=O)c1ccccc1N2C [Compound T29]	< 20	350	> 85	–	–
CCOc1cc(C(=O)N2CCN(C(=O)CN)CC2)ccc1Nc1cc2c(cn1)N(C)C(=O)c1ccccc1N2C [Compound T30]	< 20	770	–	–	–
CN1C(=O)c2ccccc2N(C)c2cc(Nc3ccc(C(=O)N4CCC[C@H](O)C4)cc3OCCF)ncc21 [Compound T32]	50 to 200	870	–	–	–
CN1C(=O)c2ccccc2N(C)c2cc(Nc3ccc(C(=O)N4CCCNCC4)cc3OCCF)ncc21 [Compound T33]	< 20	670	–	–	–
CCOc1cc(C(=O)N2CCN(c3ccccn3)CC2)ccc1Nc1cc2c(cn1)N(C)C(=O)c1ccccc1N2C [Compound T35]	20 to 50	660	–	–	–
CCOc1cc(C(=O)N2CCN(c3cccnc3)CC2)ccc1Nc1cc2c(cn1)N(C)C(=O)c1ccccc1N2C [Compound T36]	< 20	110	–	–	–
CCOc1cc(C(=O)N2CCC(N(C)CCO)CC2)ccc1Nc1cc2c(cn1)N(C)C(=O)c1ccccc1N2C [Compound T38]	20 to 50	320	–	–	–
CCCOc1cc(C(=O)N2CCC[C@H](O)C2)ccc1Nc1cc2c(cn1)N(C)C(=O)c1ccccc1N2C [Compound T39]	> 200	920	–	–	–
CCCOc1cc(C(=O)N2CCCNCC2)ccc1Nc1cc2c(cn1)N(C)C(=O)c1ccccc1N2C [Compound T40]	20 to 50	490	–	–	–

SMILES	IC50 [1, 3] [nM]	EC50 (human PBMCs) [nM]	inhibition at 10 µM [2] [%]	IC50 [1] [nM]	IC50 [2] [nM]
CCCOc1cc(C(=O)N2CCC(N3CCN(C)CC3)CC2)ccc1Nc1cc2c(cn1)N(C)C(=O)c1ccccc1N2C [Compound T41]	20 to 50	370	–	–	–
CCOc1cc(C(=O)N2CCC[C@H](OP(=O)(O)O)C2)ccc1Nc1cc2c(cn1)N(C)C(=O)c1ccccc1N2C [Compound T43]	20 to 50	> 10000	–	–	–
CCOc1cc(C(=O)N2CCC[C@H](OC(=O)CN(C)C)C2)ccc1Nc1cc2c(cn1)N(C)C(=O)c1ccccc1N2C [Compound T44]	20 to 50	650	–	–	–
CCOc1cc(C(=O)N2CCC(N3CCCNCC3)CC2)ccc1Nc1cc2c(cn1)N(C)C(=O)c1ccccc1N2C [Compound T45]	< 20	1480	–	–	–
CCOc1cc(C(=O)N2CCNC(C)CC2)ccc1Nc1cc2c(cn1)N(C)C(=O)c1ccccc1N2C (centres unmarked) [Compound T46]	< 20	600	–	–	–
CCOc1cc(C(=O)N2CCC(N3CCN[C@H](C)C3)CC2)ccc1Nc1cc2c(cn1)N(C)C(=O)c1ccccc1N2C [Compound T51]	20 to 50	740	–	–	–
CCOc1cc(C(=O)N2CCC(N3CCN[C@@H](C)C3)CC2)ccc1Nc1cc2c(cn1)N(C)C(=O)c1ccccc1N2C [Compound T52]	20 to 50	1080	–	–	–
CCOc1cc(C(=O)N2CCC[C@H](N3CCCC3)C2)ccc1Nc1cc2c(cn1)N(C)C(=O)c1ccccc1N2C [Compound T53]	50 to 200	890	–	–	–
CCOc1cc(C(=O)N2CC[C@@H](N(C)CCO)C2)ccc1Nc1cc2c(cn1)N(C)C(=O)c1ccccc1N2C [Compound T55]	20 to 50	840	–	–	–
CCOc1cc(C(=O)N2CCC[C@@H](N3CCCC3)C2)ccc1Nc1cc2c(cn1)N(C)C(=O)c1ccccc1N2C [Compound T57]	50 to 200	650	–	–	–
CCOc1cc(C(=O)N2CC[C@@H](N3CCNCC3)C2)ccc1Nc1cc2c(cn1)N(C)C(=O)c1ccccc1N2C [Compound T58]	20 to 50	1040	–	–	–
CCOc1cc(C(=O)N[C@H]2CC[C@H](O)CC2)ccc1Nc1cc2c(cn1)N(C)C(=O)c1ccccc1O2 [Compound T89]	50 to 200	1720 ± 1510	–	–	> 5000
CN1C(=O)c2cccc(F)c2Oc2cc(N[C@H]3CC[C@H](O)CC3)ncc21 [Compound T93]	> 200	1720 ± 1340	–	–	> 5000
CN1C(=O)c2cccc(Cl)c2Oc2cc(N[C@H]3CC[C@H](O)CC3)ncc21 [Compound T94]	> 200	1170 ± 1120	–	–	> 5000
Cc1cccc2c1Oc1cc(N[C@H]3CC[C@H](O)CC3)ncc1N(C)C2=O [Compound T96]	> 200	1100 ± 860	–	–	2000 to 5000
CCOc1cc(C(=O)N2CCN(C3CCN(C)CC3)CC2)ccc1Nc1cc2c(cn1)N(C)C(=O)c1ccccc1S2 [Compound T99]	50 to 200	3220 ± 2750	–	–	> 5000
CCOc1cc(C(=O)N2CCN(C3CCN(C)CC3)CC2)ccc1Nc1cc2c(cn1)N(C)C(=O)c1cccc(F)c1O2 [Compound T103]	50 to 200	1230 ± 1310	–	–	> 5000
CCOc1cc(C(=O)N2CCN(C3CCN(C)CC3)CC2)ccc1Nc1cc2c(cn1)N(C)C(=O)c1cccc(Cl)c1O2 [Compound T104]	50 to 200	510 ± 240	–	–	2000 to 5000
CCOc1cc(C(=O)N2CCN(C3CCN(C)CC3)CC2)ccc1Nc1cc2c(cn1)N(C)C(=O)c1cccc(OC)c1O2 [Compound T105]	50 to 200	430 ± 280	–	–	< 2000
CCOc1cc(C(=O)N2CCN(C3CCN(C)CC3)CC2)ccc1Nc1cc2c(cn1)N(C)C(=O)c1cccc(C)c1O2 [Compound T106]	50 to 200	270 ± 170	–	–	< 2000
CCOc1cc(C(=O)N2CCN(C3CCN(C)CC3)CC2)ccc1Nc1cc2c(cn1)N(C)C(=O)c1c(F)ccc(F)c1O2 [Compound T107]	20 to 50	300 ± 250	–	–	< 2000

Source: patent US20170008888A1 (KYORIN PHARMACEUTICAL CO., LTD., priority 2014, published 2017)
